ChEMBL document CHEMBL6134907, “Synthesis of 5,9- and 5,8-Diaminoalkoxy Substituted Benzophenanthridinone Analogues as Tyrosyl-DNA Phosphodiesterase 1 Inhibitors and Their Radiosensitizing Activity” (J Med Chem, 2025)
The source made the active and inactive calls. The calls are words filed in the database; no cut-off is given here.

Experiments:
[1] = AUClast in male Sprague-Dawley rat at 1 mg/kg, iv measured up to 24 hrs by LCMS-MS analysis; type: ADME, organism-based; conditions: in vivo
[2] = Acute toxicity in Kunming mouse assessed as survival at 150 to 600 mg/kg, ip single dose measured after 7 days; type: organism-based; conditions: in vivo, 168 h, dose 150-600 mg/kg, time 7 day
HCT-116 [3] = test: Induction of cell cycle arrest in human HCT-116 cells assessed as accumulation of cells at G0/G1 phase at 10 uM measured after 24 hrs by Propidium iodide (PI) staining based assay (reference value: 69.35%); type: functional
RKO = test: Synergistic cytotoxicity against human RKO cells assessed as combination index at 5 uM incubated for 48 hrs in presence of 2GY ionizing radiation (IR); type: functional
[4] = Toxicity in human NCM460 cells assessed as 2GY ionizing radiation radiosensitisation mediated cell killing; type: cell-based
HCT-116 [5] = test: Induction of ROS generation in human HCT-116 cells assessed as intracellular ROS level at 10 uM under 4GY ionizing radiation (IR) measured after 20 mins by flow cytometry (reference value: 7.2%); type: functional
HCT-116 [6] = test: Effect on Lig4 expression in wild type human HCT-116 cells assessed as change in mRNA level at 5 to 10 uM measured after 24 hrs by qRT-PCR analysis; type: functional, cell-based; conditions: dose 5-10 µM

Structure (SMILES): COc1cc2c(=O)n(CCN(C)C)c3c4cc5c(cc4ccc3c2cc1OCCN1CCOCC1)OCO5
- AUC(0-t) at 24 h [1]: 247 ng·h/mL
- Activity [2]: Non-toxic
- Activity (HCT-116 [3]): 63.63%
- CI (RKO): <0.3
- Activity [4]: Non-toxic
- Activity (HCT-116 [5]): 27.6%
- Activity (HCT-116 [6]): inactive
